ChEMBL document CHEMBL5729675, “Sulfonamide compound or salt thereof” (2023)

target: Ribonucleotide reductase (Homo sapiens, UniProt P23921+Q7LG56); assay: Human RNR Inhibition Effect: The inhibitory activity against the ribonucleotide reduction reaction (hereinafter referred to as RNR reaction) of the test compound was determined by measuring the formation of deoxycytidine diphosphate (hereinafter referred to as dCDP) from cytidine diphosphate (hereinafter referred to as CDP) by the following method.Human M1 subunit and human M2 subunit (mutant …
Sequence (P23921 whole entry, looked up): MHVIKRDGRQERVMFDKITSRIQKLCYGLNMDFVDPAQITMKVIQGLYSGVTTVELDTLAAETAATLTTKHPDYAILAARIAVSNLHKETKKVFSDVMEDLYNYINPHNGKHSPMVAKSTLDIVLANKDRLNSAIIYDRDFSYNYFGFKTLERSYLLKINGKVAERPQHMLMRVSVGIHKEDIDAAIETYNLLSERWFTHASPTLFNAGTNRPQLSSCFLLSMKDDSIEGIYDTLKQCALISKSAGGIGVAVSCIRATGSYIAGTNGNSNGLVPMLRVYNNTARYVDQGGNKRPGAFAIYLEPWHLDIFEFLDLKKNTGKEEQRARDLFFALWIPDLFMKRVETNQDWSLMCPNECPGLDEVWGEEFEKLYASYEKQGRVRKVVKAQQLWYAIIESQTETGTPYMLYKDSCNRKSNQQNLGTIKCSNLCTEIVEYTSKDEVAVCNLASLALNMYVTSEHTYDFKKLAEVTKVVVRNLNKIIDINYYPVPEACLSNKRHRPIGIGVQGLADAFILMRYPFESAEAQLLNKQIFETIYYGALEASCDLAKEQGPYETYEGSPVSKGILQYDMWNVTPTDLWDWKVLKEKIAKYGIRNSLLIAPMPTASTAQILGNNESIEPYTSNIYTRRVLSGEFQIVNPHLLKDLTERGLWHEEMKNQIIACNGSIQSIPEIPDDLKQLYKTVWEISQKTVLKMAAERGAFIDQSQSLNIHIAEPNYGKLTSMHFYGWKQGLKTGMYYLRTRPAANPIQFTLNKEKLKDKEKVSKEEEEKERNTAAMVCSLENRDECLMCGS
Sequence (Q7LG56 whole entry, looked up): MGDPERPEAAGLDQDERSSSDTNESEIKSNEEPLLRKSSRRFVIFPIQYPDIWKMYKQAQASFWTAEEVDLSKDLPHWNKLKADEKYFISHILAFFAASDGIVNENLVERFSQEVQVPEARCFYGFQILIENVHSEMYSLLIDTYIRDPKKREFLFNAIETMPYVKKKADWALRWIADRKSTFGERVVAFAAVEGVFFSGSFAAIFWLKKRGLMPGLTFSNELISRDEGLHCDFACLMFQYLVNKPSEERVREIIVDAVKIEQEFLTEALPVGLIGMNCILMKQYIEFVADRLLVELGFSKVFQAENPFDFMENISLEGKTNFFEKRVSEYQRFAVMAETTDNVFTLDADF

Row | IC50 [nM] | SMILES
1 | 340 | COc1cc(Cl)ccc1S(=O)(=O)N[C@H](c1n[nH]c(=O)o1)[C@H](C)c1c(F)ccc(-c2ccc(Cl)nc2)c1C
2 | 160 | COc1cc(Cl)ccc1S(=O)(=O)N[C@H](c1n[nH]c(=O)o1)[C@H](C)c1c(F)ccc(-c2cnn(C(F)F)c2)c1C
3 | 120 | Cc1ccc(F)c([C@@H](C)[C@H](NS(=O)(=O)c2cc(F)c(Cl)cc2C(N)=O)c2n[nH]c(=O)o2)c1C
4 | 300 | COc1ccc(-c2ccc(F)c([C@@H](C)[C@H](NS(=O)(=O)c3ccc(Cl)cc3OC)c3n[nH]c(=O)o3)c2C)cc1
5 | 100 | Cc1cc(S(=O)(=O)N[C@H](c2n[nH]c(=O)o2)[C@H](C)c2c(F)ccc(C)c2C)c(C(N)=O)cc1Cl
6 | 490 | COc1cc(Cl)ccc1S(=O)(=O)N[C@H](c1n[nH]c(=O)o1)[C@H](C)c1c(F)ccc(-c2ccc(Cl)cc2)c1C
7 | 220 | COc1cc(Cl)ccc1S(=O)(=O)N[C@H](c1n[nH]c(=O)o1)[C@H](C)c1c(F)ccc(-c2cnn(C3CCC3)c2)c1C
8 | 70 | Cc1ccc(F)c([C@@H](C)[C@H](NS(=O)(=O)c2ccc(Cl)cc2C(=O)NO)c2n[nH]c(=O)o2)c1C
9 | 940 | COc1cc(Cl)ccc1S(=O)(=O)N[C@H](c1n[nH]c(=O)o1)[C@H](C)c1c(F)ccc(-c2cc(F)cc(F)c2)c1C
10 | 420 | Cc1ccc(F)c([C@@H](C)[C@H](NS(=O)(=O)c2cccc3c2OCCN3)c2n[nH]c(=O)o2)c1C
11 | 260 | COc1cc(N)ccc1S(=O)(=O)N[C@H](c1n[nH]c(=O)o1)[C@H](C)c1c(F)ccc2ccccc12
12 | 290 | COc1cc(Cl)ccc1S(=O)(=O)N[C@H](c1n[nH]c(=O)o1)[C@H](C)c1c(F)ccc(-c2cc[nH]n2)c1C
13 | 760 | Cc1ccc(F)c([C@@H](C)[C@H](NS(=O)(=O)c2cccc3c2CCNC3)c2n[nH]c(=O)o2)c1C
14 | 90 | COc1cc(Cl)ccc1S(=O)(=O)N[C@H](c1n[nH]c(=O)o1)[C@H](C)c1c(F)ccc(-c2cnn(C)c2)c1C
15 | 360 | COc1cc(C(N)=O)c(S(=O)(=O)N[C@H](c2n[nH]c(=O)o2)[C@H](C)c2c(F)ccc(C)c2C)cc1OC
16 | 70 | Cc1c(Cl)ccc(F)c1[C@@H](C)[C@H](NS(=O)(=O)c1ncc(Br)cc1C(N)=O)c1n[nH]c(=O)o1
17 | 130 | Cc1ccc(F)c([C@@H](C)[C@H](NS(=O)(=O)c2ccc(Cl)c3c2OCCC3N)c2n[nH]c(=O)o2)c1C (stereo partly drawn)
18 | 280 | COc1cc(Cl)ccc1S(=O)(=O)N[C@H](c1n[nH]c(=O)o1)[C@H](C)c1c(F)ccc(-c2cn(C)nc2C)c1C
19 | 130 | Cc1ccc(F)c([C@@H](C)[C@H](NS(=O)(=O)c2ccc(Cl)c3c2OCC(=O)N3CCO)c2n[nH]c(=O)o2)c1C
20 | 70 | Cc1ccc(F)c([C@@H](C)[C@H](NS(=O)(=O)c2cc(OCC(F)F)ccc2C(N)=O)c2n[nH]c(=O)o2)c1C
21 | 910 | Cc1ccc(F)c([C@@H](C)[C@H](NS(=O)(=O)c2ccc(Cl)cc2C(=O)NOCc2ccccc2)c2n[nH]c(=O)o2)c1C
22 | 730 | COc1cc(N)ccc1S(=O)(=O)N[C@H](c1n[nH]c(=O)o1)[C@H](C)c1cccc2c1CCC2
23 | 160 | C[C@H](c1c(F)ccc2ccccc12)[C@H](NS(=O)(=O)c1ccc(Cl)c2c1OCCC2F)c1n[nH]c(=O)o1 (stereo partly drawn)
24 | 370 | CNC(=O)c1cc(Cl)ccc1S(=O)(=O)N[C@H](c1n[nH]c(=O)o1)[C@H](C)c1c(F)ccc(C)c1C
25 | 140 | Cc1ccc(F)c([C@@H](C)[C@H](NS(=O)(=O)c2c(F)cc(Cl)cc2C(N)=O)c2n[nH]c(=O)o2)c1C
26 | 180 | COc1cc(Cl)ccc1S(=O)(=O)N[C@H](c1n[nH]c(=O)o1)[C@H](C)c1c(F)ccc(-c2c[nH]nc2C)c1C
27 | 420 | Cc1ccc(F)c([C@@H](C)[C@H](NS(=O)(=O)c2c(Cl)cc(Cl)cc2C(N)=O)c2n[nH]c(=O)o2)c1C

Row | IC50 [nM] | SMILES
28 | 230 | Cc1ccc(F)c([C@@H](C)[C@H](NS(=O)(=O)c2ccc(Cl)cc2N)c2n[nH]c(=O)o2)c1C
29 | 100 | Cc1ccc(F)c([C@@H](C)[C@H](NS(=O)(=O)c2ccc(Cl)c3c2OCCN3)c2n[nH]c(=O)o2)c1C
30 | 110 | COc1c(S(=O)(=O)N[C@H](c2n[nH]c(=O)o2)[C@H](C)c2c(F)ccc(C)c2C)ccc(Cl)c1C(C)=O
31 | 130 | Cc1ccc(F)c([C@@H](C)[C@H](NS(=O)(=O)c2cc([N+](=O)[O-])c(Cl)cc2C(N)=O)c2n[nH]c(=O)o2)c1C
32 | 260 | COc1ccc(-c2ccc(F)c([C@@H](C)[C@H](NS(=O)(=O)c3ccc(Cl)cc3OC)c3n[nH]c(=O)o3)c2C)cn1
33 | 160 | COc1cc(Cl)ccc1S(=O)(=O)N[C@H](c1n[nH]c(=O)o1)[C@H](C)c1c(F)ccc(-c2cn[nH]c2)c1C
34 | 80 | Cc1ccc(F)c([C@@H](C)[C@H](NS(=O)(=O)c2ccc(Cl)c(C(=O)N(C)C)n2)c2n[nH]c(=O)o2)c1C
35 | 510 | COc1cc(N)ccc1S(=O)(=O)N[C@H](c1n[nH]c(=O)o1)[C@H](C)c1cccc2cccc(C)c12
36 | 190 | COc1cc(Cl)ccc1S(=O)(=O)N[C@H](c1n[nH]c(=O)o1)[C@H](C)c1c(F)ccc(-c2ccc(N3CCOCC3)nc2)c1C
37 | 100 | COc1cc(S(=O)(=O)N[C@H](c2n[nH]c(=O)o2)[C@H](C)c2c(F)ccc(C)c2C)c(C(N)=O)cc1Cl
38 | 850 | C[C@H](c1cccc2c1CCCC2)[C@H](NS(=O)(=O)c1ccc(N)cc1)c1n[nH]c(=O)o1
39 | 50 | Cc1ccc(F)c([C@@H](C)[C@H](NS(=O)(=O)c2ccc(Cl)cc2C(N)=S)c2n[nH]c(=O)o2)c1C
40 | 170 | CCn1cc(-c2ccc(F)c([C@@H](C)[C@H](NS(=O)(=O)c3ccc(Cl)cc3OC)c3n[nH]c(=O)o3)c2C)cn1
41 | 340 | COc1cc(Cl)ccc1S(=O)(=O)N[C@H](c1n[nH]c(=O)o1)[C@H](C)c1c(F)ccc(-c2cccnc2)c1C
42 | 440 | CC(=O)Nc1cc(Cl)ccc1S(=O)(=O)N[C@H](c1n[nH]c(=O)o1)[C@H](C)c1c(F)ccc(C)c1C
43 | 660 | COC(=O)c1cc(Cl)c(N)cc1S(=O)(=O)N[C@H](c1n[nH]c(=O)o1)[C@H](C)c1c(F)ccc(C)c1C
44 | 280 | COc1ncc(-c2ccc(F)c([C@@H](C)[C@H](NS(=O)(=O)c3ccc(Cl)cc3OC)c3n[nH]c(=O)o3)c2C)cn1
45 | 310 | Cc1ccc(F)c([C@@H](C)[C@H](NS(=O)(=O)c2ccccc2C(=O)NO)c2n[nH]c(=O)o2)c1C
46 | 790 | Cc1cccc([C@@H](C)[C@H](NS(=O)(=O)c2ccc(Cl)c3c2OCC=C3)c2n[nH]c(=O)o2)c1C
47 | 220 | COc1cc(Cl)ccc1S(=O)(=O)N[C@H](c1n[nH]c(=O)o1)[C@H](C)c1c(F)ccc(-c2cnn(C3CC3)c2)c1C
48 | 540 | COc1cc(Cl)ccc1S(=O)(=O)N[C@H](c1n[nH]c(=O)o1)[C@H](C)c1c(F)ccc(-c2cncnc2)c1C
49 | 150 | Cc1ccc(F)c([C@@H](C)[C@H](NS(=O)(=O)c2ccc(Cl)c(C(=O)N3CCC(N)C3)n2)c2n[nH]c(=O)o2)c1C (stereo partly drawn)
50 | 560 | CC(=O)N1CCOc2c(S(=O)(=O)N[C@H](c3n[nH]c(=O)o3)[C@H](C)c3cccc(C)c3C)ccc(Cl)c21
51 | 130 | Cc1c(Cl)ccc(F)c1[C@@H](C)[C@H](NS(=O)(=O)c1ccc(Cl)c2c1OCCN2C)c1n[nH]c(=O)o1
52 | 90 | Cc1ccc(F)c([C@@H](C)[C@H](NS(=O)(=O)c2cc3c(cc2C(N)=O)OCCO3)c2n[nH]c(=O)o2)c1C
53 | 60 | Cc1c(Br)ccc(F)c1[C@@H](C)[C@H](NS(=O)(=O)c1ncc(Cl)cc1C(N)=O)c1n[nH]c(=O)o1
